Laboratory results: US8921552B2, “Benzothiazole hybrids useful as anticancer agents and process for the preparation thereof” (Council of Scientific & Industrial Research, priority 2011, dated 2014)

Assays:
A-549 = test: In vitro cytotoxicity, SRB assay, lung cancer cell line A-549; format: cell-based, human; conditions: Homo sapiens, A549, A-549 (lung), read-out: % of growth inhibition; for inhibition at 10 µM: 48 h exposure
Text: (§1) The benzothiazole hybrids has been tested against seven human tumor cell lines derived from six cancer types (lung cancer, colon cancer, CNS cancer, ovarian cancer, prostate cancer and breast cancer). For these compounds results are expressed as percent of cell growth inhibition relative to that of untreated control cells.

IGR-OV-1 = test: In vitro cytotoxicity, SRB assay, ovarian cancer cell line IGR-OV-1; format: cell-based, human; conditions: Homo sapiens, IGROV-1, IGR-OV-1 (ovarian), read-out: % of growth inhibition; for inhibition at 10 µM: 48 h exposure
Text: as §1

Colo-205 = test: In vitro cytotoxicity, SRB assay, colon cancer cell line Colo-205; format: cell-based, human; conditions: Homo sapiens, Colo-205 (colon), read-out: % of growth inhibition
Text: as §1

PC-3 = test: In vitro cytotoxicity, SRB assay, prostate cancer cell line PC-3; format: cell-based, human; conditions: Homo sapiens, PC-3 (prostate), read-out: % of growth inhibition; for inhibition at 10 µM: 48 h exposure
Text: as §1

MCF7 = test: In vitro cytotoxicity, SRB assay, breast cancer cell line MCF7; format: cell-based, human; conditions: Homo sapiens, read-out: % of growth inhibition; for inhibition at 10 µM: 48 h exposure
Text: as §1

SF-295 = test: In vitro cytotoxicity, SRB assay, CNS cancer cell line SF-295; format: cell-based, human; conditions: Homo sapiens, SF-295 (CNS), read-out: % of growth inhibition; for inhibition at 10 µM: 48 h exposure
Text: as §1

human tumor cell lines = test: In vitro anticancer activity, panel of seven human tumor cell lines (SRB assay); format: cell-based; conditions: for inhibition at 10 µM: Homo sapiens, range over the cell lines, exposure period of at least 48 hrs, read-out: percentage growth inhibition for invitro anticancer activity; for cytotoxic activity in words: various human tumour cell lines
Description: as §1, with “cells. A protocol of 48 h continuous drug exposure has been used, and a sulforhodamine B (SRB) protein assay was used to estimate cell viability or growth.” for “cells.”
(§2) The compounds 9b, 9h, 9m, 9r, 15c, 15h, 15m, 15r, 10b, 10h, 10m, 10r, 16c, 16h and 16m were evaluated for in vitro anticancer activity against seven human tumor cells derived from six cancer types (lung cancer, colon cancer, CNS cancer, ovarian cancer, prostate cancer and breast cancer) at concentration of 10 μM and the results are shown in Table 1.

SW-620 = test: In vitro cytotoxicity, SRB assay, colon cancer cell line SW-620; format: cell-based; conditions: Homo sapiens, SW-620 (colon), 48 h exposure, read-out: % of growth inhibition
Description: as §1, with “cells. A protocol of 48 h continuous drug exposure has been used, and a sulforhodamine B (SRB) protein assay was used to estimate cell viability or growth.” for “cells.”
as §2

Structure (SMILES)	inhibition at 10 µM (A-549) [%]	inhibition at 10 µM (IGR-OV-1) [%]	inhibition at 10 µM (Colo-205; 10 μM, 48 h exposure) [%]	inhibition at 10 µM (PC-3) [%]	inhibition at 10 µM (MCF7) [%]	inhibition at 10 µM (SF-295) [%]	inhibition at 10 µM (human tumor cell lines) [%]	inhibition at 10 µM (SW-620) [%]	cytotoxic activity in words (human tumor cell lines)	inhibition at 1 µM (A-549; reference drug at 1 μM) [%]	inhibition at 1 µM (IGR-OV-1; reference drug at 1 μM) [%]	inhibition at 1 µM (Colo-205; reference drug at 1 μM) [%]	inhibition at 1 µM (PC-3; reference drug at 1 μM) [%]	inhibition at 1 µM (MCF7; reference drug at 1 μM) [%]	inhibition at 1 µM (SF-295; reference drug at 1 μM) [%]
COc1cc(-c2nc3ccccc3s2)ccc1OCCCOc1cc(/C=C\c2cc(OC)c(OC)c(OC)c2)ccc1OC [Compound 9b, 2-[3-methoxy-4-(3-{2-methoxy-5-[(Z)-2-(3,4,5-trimethoxyphenyl)-1-ethenyl]phenoxy}propoxy)phenyl]-1,3-benzothiazole]	69	54	16	78	57	53	1 to 100								
COc1ccc(/C=C\c2cc(OC)c(OC)c(OC)c2)cc1OCCCCOc1cccc(-c2nc3ccccc3s2)c1 [Compound 9r, 2-[3-(4-{2-methoxy-5-[(Z)-2-(3,4,5-trimethoxyphenyl)-1-ethenyl]phenoxy}butoxy)phenyl]-1,3-benzothiazole]	59	48		59	52	71	1 to 100	22							
COc1cc(-c2nc3ccccc3s2)ccc1OCCCOc1cc(/C=C/C(=O)c2cc(OC)c(OC)c(OC)c2)ccc1OC [Compound 10b, (E)-3-(3-{3-[4-(1,3-benzothiazol-2-yl)-2-methoxyphenoxy]propoxy}-4-methoxyphenyl)-1-(3,4,5-trimethoxyphenyl)-2-propen-1-one]	66	21		5	19	51	1 to 100	0							
COc1ccc(/C=C/C(=O)c2cc(OC)c(OC)c(OC)c2)cc1OCCCCOc1ccc(-c2nc3ccccc3s2)cc1 [Compound 10h, (E)-3-(3-{4-[4-(1,3-benzothiazol-2-yl)phenoxy]butoxy}-4-methoxyphenyl)-1-(3,4,5-trimethoxyphenyl)-2-propen-1-one]	31	17		6	9	38	1 to 100	2							
COc1ccc(/C=C/C(=O)c2cc(OC)c(OC)c(OC)c2)cc1OCCCCOc1cc(-c2nc3ccccc3s2)ccc1OC [Compound 10m, (E)-3-(3-{4-[5-(1,3-benzothiazol-2-yl)-2-methoxyphenoxy]butoxy}-4-methoxyphenyl)-1-(3,4,5-trimethoxyphenyl)-2-propen-1-one]	7	17		0	24	14	1 to 100	27							
COc1ccc(/C=C/C(=O)c2cc(OC)c(OC)c(OC)c2)cc1OCCCCOc1cccc(-c2nc3ccccc3s2)c1 [Compound 10r, (E)-3-(3-{4-[3-(1,3-benzothiazol-2-yl)phenoxy]butoxy}-4-methoxyphenyl)-1-(3,4,5-trimethoxyphenyl)-2-propen-1-one]	41	0		1	14	21	1 to 100	0							
COc1cc(-c2nc3ccccc3s2)ccc1OCCCCN1CCN(CCCCOc2cc(/C=C\c3cc(OC)c(OC)c(OC)c3)ccc2OC)CC1 [Compound 15c, 2-[3-methoxy-4-({4-[4-(4-{2-methoxy-5-[(Z)-2-(3,4,5-trimethoxyphenyl)-1-ethenyl]phenoxy}butyl)piperazino]butyl}oxy)phenyl]-1,3-benzothiazole]	88	95		53	95	99	1 to 100	86	increase in activity						
COc1ccc(/C=C\c2cc(OC)c(OC)c(OC)c2)cc1OCCCCN1CCN(CCCCOc2ccc(-c3nc4ccccc4s3)cc2)CC1 [Compound 15h, 2-[4-({4-[4-(4-{2-methoxy-5-[(Z)-2-(3,4,5-trimethoxyphenyl)-1-ethenyl]phenoxy}butyl)piperazino]butyl}oxy)phenyl]-1,3-benzothiazole]	91	83		96	93	98	1 to 100	72	increase in activity						
COc1ccc(/C=C\c2cc(OC)c(OC)c(OC)c2)cc1OCCCCN1CCN(CCCCOc2cc(-c3nc4ccccc4s3)ccc2OC)CC1 [Compound 15m, 2-[4-methoxy-3-({4-[4-(4-{2-methoxy-5-[(Z)-2-(3,4,5-trimethoxyphenyl)-1-ethenyl]phenoxy}butyl)piperazino]butyl}oxy)phenyl]-1,3-benzothiazole]	100	99		60	97	98	1 to 100	99	increase in activity						
COc1ccc(/C=C\c2cc(OC)c(OC)c(OC)c2)cc1OCCCCN1CCN(CCCCOc2cccc(-c3nc4ccccc4s3)c2)CC1 [Compound 15r, 2-[3-({4-[4-(4{-2-methoxy-5-[(Z)-2-(3,4,5-trimethoxyphenyl)-1-ethenyl]phenoxy}butyl)piperazino]butyl}oxy)phenyl]-1,3-benzothiazole]	96	92		70	88	98	1 to 100	99	increase in activity						
COc1cc(-c2nc3ccccc3s2)ccc1OCCCCN1CCN(CCCCOc2cc(/C=C/C(=O)c3cc(OC)c(OC)c(OC)c3)ccc2OC)CC1 [Compound 16c, (E)-3-(3{-[4-(4-{4-[4-(1,3-benzothiazol-2-yl)-2-methoxyphenoxy]butyl}piperazino)butyl]oxy}-4-methoxyphenyl)-1-(3,4,5-trimethoxyphenyl)-2-propen-1-one]	58	67		24	69	24	1 to 100	0							
COc1ccc(/C=C/C(=O)c2cc(OC)c(OC)c(OC)c2)cc1OCCCCN1CCN(CCCCOc2ccc(-c3nc4ccccc4s3)cc2)CC1 [Compound 16h, (E)-3-(3{-[4-(4-{4-[4-(1,3-benzothiazol-2-yl)phenoxy]butyl}piperazino)butyl]oxy}-4-methoxyphenyl)-1-(3,4,5-trimethoxyphenyl)-2-propen-1-one]	59	73		67	84	63	1 to 100	0							
COc1ccc(/C=C/C(=O)c2cc(OC)c(OC)c(OC)c2)cc1OCCCCN1CCN(CCCCOc2cc(-c3nc4ccccc4s3)ccc2OC)CC1 [Compound 16m, (E)-3-(3{-[4-(4-{4-[5-(1,3-benzothiazol-2-yl)-2-methoxyphenoxy]butyl}piperazino)butyl]oxy}-4-methoxyphenyl)-1-(3,4,5-trimethoxyphenyl)-2-propen-1-one]	100	85		2	57	15	1 to 100	0							
CC(=O)O[C@H]1C(=O)[C@@]2(C)[C@H]([C@H](OC(=O)c3ccccc3)[C@]3(O)C[C@H](OC(=O)[C@H](O)[C@@H](NC(=O)c4ccccc4)c4ccccc4)C(C)=C1C3(C)C)[C@]1(OC(C)=O)CO[C@@H]1C[C@@H]2O [Paclitaxel, reference compound]										62	44	95	35	59	59
